Laboratory results reported in PubChem BioAssay (NCI).
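In this assay, cells in 96-well plates receive the compound at five concentrations for 48 hours. Endpoints are linearly interpolated between the surrounding concentrations. GI50 is the concentration that inhibits growth by half. The concentration for full growth arrest is given as TGI.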

Key:
Assay in all cases: NCI tumour cell line growth inhibition, 48 h
HL-60(TB) leukemia = system: HL-60(TB) leukemia
MCF7 breast = system: MCF7 breast
MDA-MB-231 breast = system: MDA-MB-231 breast
SK-OV-3 ovarian = system: SK-OV-3 ovarian
U251 CNS = system: U251 CNS
UACC-257 melanoma = system: UACC-257 melanoma
UACC-62 melanoma = system: UACC-62 melanoma
MOLT-4 leukemia = system: MOLT-4 leukemia

Row | Structure (SMILES) | GI50 (HL-60(TB) leukemia) [µM] | TGI (HL-60(TB) leukemia) [µM] | GI50 (MCF7 breast) [µM] | TGI (MCF7 breast) [µM] | GI50 (MDA-MB-231 breast) [µM] | TGI (MDA-MB-231 breast) [µM] | GI50 (SK-OV-3 ovarian) [µM] | TGI (SK-OV-3 ovarian) [µM] | GI50 (U251 CNS) [µM] | TGI (U251 CNS) [µM] | GI50 (UACC-257 melanoma) [µM] | TGI (UACC-257 melanoma) [µM] | GI50 (UACC-62 melanoma) [µM] | TGI (UACC-62 melanoma) [µM] | GI50 (MOLT-4 leukemia) [µM] | TGI (MOLT-4 leukemia) [µM]
1 | COc1ccc(Cn2c(N)c(S(=O)(=O)c3ccc(Cl)cc3)c3nc(C#N)c(C#N)nc32)cc1 | > 50 | > 50 | 5.85 | > 50 | 3.1 | 20.9 | 10.8 | 49.4 | 10.1 | 30.3 | > 50 | > 50 | 4.36 | 17.8 | – | –
2 | CCc1ccc(/C=C/c2ccc(O)c3ncccc23)[n+](C)c1 | 18.8 | 73.2 | 7.99 | > 90.7 | 57.9 | > 100 | 26.9 | > 100 | 0.661 | > 100 | 16.9 | > 100 | > 21.5 | > 100 | 3.72 | > 100
3 | Nc1c(C(=O)c2ccccc2)cnn1-c1ccc(F)cc1 | > 25 | > 25 | > 25 | > 25 | > 25 | > 25 | > 25 | > 25 | > 25 | > 25 | > 25 | > 25 | > 25 | > 25 | > 25 | > 25
4 | CN(C)c1ncnc2c1ncn2CCn1cnc2c(N(C)C)ncnc21 | – | > 100 | – | > 100 | – | > 100 | – | > 100 | – | > 100 | – | > 100 | – | > 100 | – | –
5 | COc1cc(/C=C\c2cc(OC)c(OC)c(OC)c2)cc(N/C=C\C(=O)c2cc(OC)c(OC)c(OC)c2)c1OC | 3.24 | 42.2 | 2.34 | > 100 | 4.01 | > 100 | 2.91 | > 100 | 3.84 | > 100 | > 100 | > 100 | 3.11 | > 100 | 4.62 | > 100
6 | O=C(Nc1cc(C(F)(F)F)ccc1Cl)c1cccc(NC2=C(Cl)C(=O)N(Cc3ccccc3)C2=O)c1 | 3.52 | 9.23 | 5.76 | 85.6 | 32.7 | > 100 | > 100 | > 100 | 11.1 | > 100 | 53.7 | > 100 | 26.5 | > 100 | 2.19 | > 100
7 | O=[P@@]1(c2ccccc2)O[C@H](COCc2ccccc2)[C@@H](OCc2ccccc2)[C@H](OCc2ccccc2)[C@H]1NCc1ccccc1 | 2.15 | 6.09 | 3.38 | 70.4 | 3.22 | > 100 | 4.48 | > 100 | 2.97 | > 100 | 2.22 | 6.76 | 2.92 | 13.1 | 2.38 | 7.8
8 | CCc1c(Cl)c(C)cc(O)c1Cl | – | 40.8 | – | > 100 | – | > 100 | – | > 100 | – | 29 | – | 99.7 | – | > 100 | – | 95.2
9 | S=c1[nH]c2c(Cl)c(Cl)c(Cl)c(Cl)c2[nH]1 | – | 13 | – | 40.5 | – | 47.9 | – | 55.3 | – | > 100 | – | 46.4 | – | 33.3 | – | 78
10 | CC(C)=CCc1cc2c(cc1O)OC[C@H]1c3cc4c(cc3O[C@@H]21)OCO4 | – | 71.9 | – | 58.7 | – | > 100 | – | > 100 | – | > 100 | – | > 100 | – | > 100 | – | 57.4
11 | CC1(C)N=C(N)N=C(N)N1c1ccc(CCCCc2ccc(Cl)c(S(=O)(=O)F)c2)c(Cl)c1 | 0.38 | 4.1 | 0.529 | 16.9 | 4.03 | 20.6 | 6.79 | 22.2 | 0.437 | 19.6 | 3.78 | 18.4 | 0.372 | > 47.9 | 0.622 | 14.8
12 | CS(=O)(=O)Nc1cc(-c2ccc3ncnc(Nc4c(Cl)ccc5c4OCO5)c3c2)cnc1Cl | 0.159 | 0.92 | 0.0524 | 1.47 | 0.246 | 2.35 | 0.131 | 0.759 | 0.331 | 2.63 | 0.208 | 3.32 | 0.0732 | 0.785 | 0.165 | 0.76
13 | Oc1ccc2ccccc2c1N=Nc1ccc(Br)cc1 | – | > 100 | – | – | – | > 100 | – | > 100 | – | > 100 | – | > 100 | – | > 100 | – | > 100
14 | C[C@H](Nc1cc(Cl)nc2c1cnn2[C@@H]1O[C@H](COP(=O)(O)CP(=O)(O)O)[C@@H](O)[C@H]1O)c1ccccc1F | > 100 | > 100 | > 100 | > 100 | > 100 | > 100 | > 100 | > 100 | > 100 | > 100 | > 100 | > 100 | > 100 | > 100 | > 100 | > 100
15 | Cc1cc2cc3c(=O)[nH]c(=O)[nH]c3nc2cc1C | – | > 100 | – | > 100 | – | > 100 | – | > 100 | – | > 100 | – | > 100 | – | > 100 | – | > 100
16 | Cn1c(=O)c(Oc2ccc(F)cc2)cc2cnc(NC3CCOCC3)nc21 | > 25 | > 25 | > 25 | > 25 | > 25 | > 25 | > 25 | > 25 | > 25 | > 25 | > 25 | > 25 | > 25 | > 25 | > 25 | > 25
17 | Oc1ccc(Nc2c3ccccc3nc3occ(Cl)c23)cc1 | – | – | 3.38 | 11.3 | 2.43 | 7.39 | 4.77 | > 100 | 5.63 | > 100 | – | – | 2.4 | 10.4 | 3.14 | 13.2

Row | Structure (SMILES) | GI50 (HL-60(TB) leukemia) [µM] | TGI (HL-60(TB) leukemia) [µM] | GI50 (MCF7 breast) [µM] | TGI (MCF7 breast) [µM] | GI50 (MDA-MB-231 breast) [µM] | TGI (MDA-MB-231 breast) [µM] | GI50 (SK-OV-3 ovarian) [µM] | TGI (SK-OV-3 ovarian) [µM] | GI50 (U251 CNS) [µM] | TGI (U251 CNS) [µM] | GI50 (UACC-257 melanoma) [µM] | TGI (UACC-257 melanoma) [µM] | GI50 (UACC-62 melanoma) [µM] | TGI (UACC-62 melanoma) [µM] | GI50 (MOLT-4 leukemia) [µM] | TGI (MOLT-4 leukemia) [µM]
18 | CC1CCN(C(=O)OCc2nc3nc(Cl)nc(N4CCOCC4)c3[nH]2)CC1 | 0.423 | 3.78 | 0.65 | 2.38 | 1.25 | 2.7 | 7.35 | 21 | 1.66 | 3.43 | 1.73 | 3.76 | 1.29 | 2.55 | 0.704 | 4.04
19 | CC(C)=CCc1cc(O)cc2c1OC(C=C(C)C)C1=C2C(=O)C2=C(C1=O)S(=O)(=O)CCN2 (stereo not drawn) | – | – | 2.79 | 6.97 | 2.99 | 8.27 | 8.06 | > 16.7 | 2.84 | 5.15 | 2.56 | 4.97 | 2.81 | 5.46 | 3.4 | 8.99
20 | Clc1nc(Cl)nc(Nc2cccc3ccccc23)n1 | > 100 | > 100 | 36.3 | > 100 | 63.9 | > 100 | > 100 | > 100 | > 100 | > 100 | > 100 | > 100 | 82.5 | > 100 | 40.3 | > 100
21 | O=C(O)c1ccc(C(=O)O)c2c(C(=O)O)ccc(C(=O)O)c12 | – | – | – | > 100 | – | > 100 | – | > 100 | – | > 100 | – | > 100 | – | > 100 | – | > 100
22 | O=[N+]([O-])c1cccc2ccc(N/N=C/c3ccccc3O)nc12 | 1.74 | > 100 | 2.34 | > 100 | > 100 | > 100 | > 100 | > 100 | > 59.7 | > 100 | > 100 | > 100 | > 100 | > 100 | 0.313 | 1.16
23 | CC(C(=O)O)c1cccc(Oc2ccccc2)c1 (stereo not drawn) | > 100 | > 100 | > 100 | > 100 | > 100 | > 100 | > 100 | > 100 | > 100 | > 100 | > 100 | > 100 | > 100 | > 100 | > 100 | > 100
24 | COc1cccc2c1C(=O)c1c(O)c3c(c(O)c1C2=O)C[C@@](O)(/C(C)=N/NC(=O)c1ccc(Cl)cc1)C[C@@H]3OC1CC(N)C(O)C(C)O1 (stereo partly drawn) | – | – | – | – | 0.603 | 2.77 | 0.481 | 13.8 | – | – | 0.188 | 0.867 | – | – | 0.0545 | 3.31
25 | CCOC(=O)/C=C/c1ccc(C#Cc2ccccc2)cc1 | > 100 | > 100 | > 100 | > 100 | > 100 | > 100 | > 100 | > 100 | > 100 | > 100 | > 100 | > 100 | 83.5 | > 100 | > 100 | > 100
26 | O=C1c2cc3c(cc2-c2c1c1cc(Cl)c(Cl)cc1c(=O)n2C[C@H](O)CO)OCO3 | < 0.01 | 10.5 | – | – | 0.0796 | 1.66 | < 0.01 | 0.0536 | < 0.01 | 0.0368 | 0.0123 | 0.217 | < 0.01 | 0.0126 | – | –
27 | O=C(Nc1ccc(Cl)c(C(F)(F)F)c1)c1ccc(NC2=C(Cl)C(=O)N(Cc3ccccc3)C2=O)cc1 | 2.58 | 6.46 | – | – | 17.1 | 31 | 26.9 | 60.5 | 2.15 | 5.23 | 16.3 | 42.7 | 16.6 | 30.2 | 2.89 | > 100
28 | O=C1CCC/C=C\C[C@H]2C=CC(=O)/C2=C/C[C@H](C/C=C\CC(F)(F)F)O1 | 0.495 | 2.58 | 0.336 | 3.16 | 0.722 | 5.63 | 0.757 | 3.02 | 0.419 | 1.75 | – | – | 0.28 | 0.765 | 0.984 | 7.51
29 | CN1CC[C@@H](c2c(O)cc(O)c3c(=O)cc(-c4ccc(C(F)(F)F)cc4Cl)oc23)[C@@H]1CO | 8.37 | 33.6 | 14.5 | 38.3 | 12.7 | 34.3 | 26.6 | 70 | 16.7 | 33.9 | 26.6 | 46.7 | 14.6 | 32.8 | – | –
30 | Cc1cc(N(CCCNc2ccnc3cc(Cl)ccc23)Cc2ccc3c(c2)OCO3)nc(N2CCOCC2)n1 | – | – | 0.286 | 92 | 0.303 | 1.37 | – | – | 0.323 | 3.18 | 0.214 | 0.625 | 0.217 | 0.501 | 0.283 | 0.953
31 | COc1ccc(/C(=C\C=C(C#N)C#N)Sc2nc3ccccc3s2)cc1 | – | – | 2.26 | 17.9 | 6.71 | 14.4 | 14.3 | 29.5 | 3.39 | 11 | 10.3 | 23.7 | 8.63 | 18.7 | – | –
32 | CCCCCCCN=C(N)c1ccc(N2CCN(c3ccc(C(N)=NCCCCCCC)cc3)CC2)cc1 | – | – | 0.208 | – | 0.165 | 0.703 | 0.735 | > 26.4 | 1.45 | 9.34 | 1.24 | 4.39 | 0.346 | – | 2.71 | > 100
33 | Cn1cc(-c2csc(-c3c[nH]c4ccc(Br)cc34)n2)c2cnccc21 | 2.11 | 7.91 | 1.77 | 3.71 | 2.34 | 5.55 | – | – | – | – | – | – | – | – | – | –
34 | COC(=O)c1ccc(-c2c(C#N)[n+](=O)c3cc(Cl)c(Cl)cc3n2[O-])cc1 | – | – | 19.2 | 42.1 | 14.4 | 33.5 | – | – | 16.7 | 44.9 | 21.5 | 50.1 | 15.3 | 31.7 | 1.18 | 2.96
